≈ marks a conversion by molar mass, not a printed value.
How the values were obtained:
Experiment in all cases: Anti-microbial activity test in vitro (agar dilution MIC)
VRE C6488 = format: cell-based, Enterococcus faecium; details: VRE C6488; Agar Dilution method, Mueller Hinton Agar, 18 hours at 37° C.
How it was run: (§1)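 Plates of Mueller Hinton agar containing compound diluted twofold in steps were inoculated and incubated at 37 °C for 18 hours. The lowest concentration preventing growth, judged visually, gave the MIC in μg/ml.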

VRE C6487 = format: cell-based, Enterococcus faecium; details: VRE C6487; Agar Dilution method, Mueller Hinton Agar, 18 hours at 37° C.
How it was run: as §1

MSSA C7142 = format: cell-based, Staphylococcus aureus; details: MSSA C7142; Agar Dilution method, Mueller Hinton Agar, 18 hours at 37° C.
How it was run: as §1

CRSA C6043 = format: cell-based, Staphylococcus aureus; details: CRSA C6043; Agar Dilution method, Mueller Hinton Agar, 18 hours at 37° C.
How it was run: as §1

CRSA C1062 = format: cell-based, Staphylococcus aureus; details: CRSA C1062; Agar Dilution method, Mueller Hinton Agar, 18 hours at 37° C.
How it was run: as §1

MRSA C6068 = format: cell-based, Staphylococcus aureus; details: MRSA C6068; Agar Dilution method, Mueller Hinton Agar, 18 hours at 37° C.
How it was run: as §1

MRSA C2207 = format: cell-based, Staphylococcus aureus; details: MRSA C2207; Agar Dilution method, Mueller Hinton Agar, 18 hours at 37° C.
How it was run: as §1

MRSA C5100 = format: cell-based, Staphylococcus aureus; details: MRSA C5100; Agar Dilution method, Mueller Hinton Agar, 18 hours at 37° C.
How it was run: as §1

MSSA C2214 = format: cell-based, Staphylococcus aureus; details: MSSA C2214; Agar Dilution method, Mueller Hinton Agar, 18 hours at 37° C.
How it was run: as §1

S. pyogenes ATCC8668 = format: cell-based; details: S. pyogenes ATCC8668; Agar Dilution method, Mueller Hinton Agar, 18 hours at 37° C.
How it was run: as §1

S. aureus ATCC 29213 = format: cell-based; details: Agar Dilution method, Mueller Hinton Agar, 18 hours at 37° C.
How it was run: as §1

E. faecium C2252 = format: cell-based; details: E. faecium C2252; Agar Dilution method, Mueller Hinton Agar, 18 hours at 37° C.
How it was run: as §1

S. epidermidis C2235 = format: cell-based; details: S. epidermidis C2235; Agar Dilution method, Mueller Hinton Agar, 18 hours at 37° C.
How it was run: as §1

S. epidermidis ATCC12228 = format: cell-based; details: S. epidermidis ATCC12228; Agar Dilution method, Mueller Hinton Agar, 18 hours at 37° C.
How it was run: as §1

E. faecalis C6288 = format: cell-based; details: E. faecalis C6288; Agar Dilution method, Mueller Hinton Agar, 18 hours at 37° C.
How it was run: as §1

S. pyogenes C6003 = format: cell-based; details: S. pyogenes C6003; Agar Dilution method, Mueller Hinton Agar, 18 hours at 37° C.
How it was run: as §1

E. faecium C6301 = format: cell-based; details: E. faecium C6301; Agar Dilution method, Mueller Hinton Agar, 18 hours at 37° C.
How it was run: as §1

S. pyogenes C6012 = format: cell-based; details: S. pyogenes C6012; Agar Dilution method, Mueller Hinton Agar, 18 hours at 37° C.
How it was run: as §1

S. epidermidis C2230 = format: cell-based; details: S. epidermidis C2230; Agar Dilution method, Mueller Hinton Agar, 18 hours at 37° C.
How it was run: as §1

E. faecalis ATCC29212 = format: cell-based; details: E. faecalis ATCC29212; Agar Dilution method, Mueller Hinton Agar, 18 hours at 37° C.
How it was run: as §1

E. faecalis C6291 = format: cell-based; details: E. faecalis C6291; Agar Dilution method, Mueller Hinton Agar, 18 hours at 37° C.
How it was run: as §1

SMILES	Minimum inhibition concentration (MIC) (VRE C6488)	Minimum inhibition concentration (MIC) (VRE C6487)	Minimum inhibition concentration (MIC) (MSSA C7142)	Minimum inhibition concentration (MIC) (CRSA C6043)	Minimum inhibition concentration (MIC) (CRSA C1062)	Minimum inhibition concentration (MIC) (MRSA C6068)	Minimum inhibition concentration (MIC) (MRSA C2207)	Minimum inhibition concentration (MIC) (MRSA C5100)	Minimum inhibition concentration (MIC) (MSSA C2214)	Minimum inhibition concentration (MIC) (S. pyogenes ATCC8668)	Minimum inhibition concentration (MIC) (S. aureus ATCC 29213)	Minimum inhibition concentration (MIC) (E. faecium C2252)	Minimum inhibition concentration (MIC) (S. epidermidis C2235)	Minimum inhibition concentration (MIC) (S. epidermidis ATCC12228)	Minimum inhibition concentration (MIC) (E. faecalis C6288)	Minimum inhibition concentration (MIC) (S. pyogenes C6003)	Minimum inhibition concentration (MIC) (E. faecium C6301)	Minimum inhibition concentration (MIC) (S. pyogenes C6012)	Minimum inhibition concentration (MIC) (S. epidermidis C2230)	Minimum inhibition concentration (MIC) (E. faecalis ATCC29212)	also measured
CC(=O)NC[C@H]1CN(c2ccc(N3CCC(=CC=O)CC3)c(F)c2)C(=O)O1 [Compound 17, N-[[(5S)-3-[3-fluoro-4-(4-(2-oxoethylidene)piperidinyl)-phenyl]-2-oxo-5-oxazolidinyl]methyl]acetamide]	8 µg/mL (≈ 21.3 µM)	8 µg/mL (≈ 21.3 µM)	4 µg/mL (≈ 10.7 µM)	4 µg/mL (≈ 10.7 µM)	8 µg/mL (≈ 21.3 µM)	4 µg/mL (≈ 10.7 µM)	4 µg/mL (≈ 10.7 µM)	4 µg/mL (≈ 10.7 µM)	8 µg/mL (≈ 21.3 µM)	2 µg/mL (≈ 5.33 µM)	8 µg/mL (≈ 21.3 µM)	8 µg/mL (≈ 21.3 µM)	2 µg/mL (≈ 5.33 µM)	1 µg/mL (≈ 2.66 µM)	4 µg/mL (≈ 10.7 µM)	8 µg/mL (≈ 21.3 µM)	4 µg/mL (≈ 10.7 µM)	1 µg/mL (≈ 2.66 µM)	2 µg/mL (≈ 5.33 µM)	16 µg/mL (≈ 42.6 µM)	Minimum inhibition concentration (MIC) (E. faecalis C6291): 8 µg/mL (≈ 21.3 µM)
CC(=O)NC[C@H]1CN(c2ccc(N3CCC(=CC=NO)CC3)c(F)c2)C(=O)O1 [Compound 18, N-[[(5S)-3-[3-fluoro-4-(4-(2-hydroxyiminoethylidene)-piperidinyl)phenyl]-2-oxo-5-oxazolidinyl]methyl]acetamide]	4 µg/mL (≈ 10.2 µM)	4 µg/mL (≈ 10.2 µM)	8 µg/mL (≈ 20.5 µM)	8 µg/mL (≈ 20.5 µM)	8 µg/mL (≈ 20.5 µM)	4 µg/mL (≈ 10.2 µM)	8 µg/mL (≈ 20.5 µM)	4 µg/mL (≈ 10.2 µM)	8 µg/mL (≈ 20.5 µM)	2 µg/mL (≈ 5.12 µM)	8 µg/mL (≈ 20.5 µM)	4 µg/mL (≈ 10.2 µM)	4 µg/mL (≈ 10.2 µM)	1 µg/mL (≈ 2.56 µM)	4 µg/mL (≈ 10.2 µM)	4 µg/mL (≈ 10.2 µM)	4 µg/mL (≈ 10.2 µM)	1 µg/mL (≈ 2.56 µM)	4 µg/mL (≈ 10.2 µM)	8 µg/mL (≈ 20.5 µM)	Minimum inhibition concentration (MIC) (E. faecalis C6291): 4 µg/mL (≈ 10.2 µM)
CON=CC=C1CCN(c2ccc(N3C[C@H](CNC(C)=O)OC3=O)cc2F)CC1 [Compound 19, N-[[(5S)-3-[3-fluoro-4-(4-(2-methoxyiminoethylidene)-piperidinyl)phenyl]-2-oxo-5-oxazolidinyl]methyl]acetamide]	4 µg/mL (≈ 9.89 µM)	4 µg/mL (≈ 9.89 µM)	4 µg/mL (≈ 9.89 µM)	4 µg/mL (≈ 9.89 µM)	4 µg/mL (≈ 9.89 µM)	4 µg/mL (≈ 9.89 µM)	4 µg/mL (≈ 9.89 µM)	4 µg/mL (≈ 9.89 µM)	8 µg/mL (≈ 19.8 µM)	1 µg/mL (≈ 2.47 µM)	8 µg/mL (≈ 19.8 µM)	4 µg/mL (≈ 9.89 µM)	2 µg/mL (≈ 4.95 µM)	1 µg/mL (≈ 2.47 µM)	2 µg/mL (≈ 4.95 µM)	2 µg/mL (≈ 4.95 µM)	4 µg/mL (≈ 9.89 µM)	1 µg/mL (≈ 2.47 µM)	4 µg/mL (≈ 9.89 µM)	4 µg/mL (≈ 9.89 µM)	Minimum inhibition concentration (MIC) (E. faecalis C6291): 4 µg/mL (≈ 9.89 µM)
